Source: US20050215548A1 (Cyclacel Limited, priority 2002, published 2005)

target: T1, HDM2 (Homo sapiens, UniProt Q00987); assay: Fluorescence polarisation competitive HDM2 binding assay; conditions: fluorescence polarisation format; Table 1; read-out: IC50 In vitro competitive HDM2 binding assay
T1 construct: Recombinant HDM2 (1.5 μg per well) in TBS-BSA buffer
Experimental: This was carried out using a 96-well microtiter plate (Costar) format. Recombinant HDM2 (1.5 μg per well) in TBS-BSA buffer (50 mM Tris pH 7.4, 150 mM NaCl, and 0.1% BSA) was incubated for 5 min at room temperature in the presence of serially diluted test compound (in TBS-BSA buffer with a final concentration of 5% DMSO). Fluorescently labelled p53-derived peptide (fluorescein-[…]NH2, 0.2 μM) was added to each well and the plate was incubated at room temperature for 45 min. The fluorescence polarisation (excitation 485 nm, emission 520 nm) of the peptide was measured. IC50 values were calculated from dose-response curves.
The fluorescence polarisation competitive HDM2 binding assay described in Example 3 was used. Furthermore, the anti-proliferative potency of the compounds against three human tumour cell lines with different genetic make-up was also determined. […] The cell lines used were as follows: AGS, gastric adenocarcinoma, wild-type p53; H1299, large cell lung carcinoma, p53 null, low HDM2; SJSA-1, primitive multipotential bone sarcoma, wild-type p53, overexpressed HDM2.

T1 sequence (Q00987 whole entry): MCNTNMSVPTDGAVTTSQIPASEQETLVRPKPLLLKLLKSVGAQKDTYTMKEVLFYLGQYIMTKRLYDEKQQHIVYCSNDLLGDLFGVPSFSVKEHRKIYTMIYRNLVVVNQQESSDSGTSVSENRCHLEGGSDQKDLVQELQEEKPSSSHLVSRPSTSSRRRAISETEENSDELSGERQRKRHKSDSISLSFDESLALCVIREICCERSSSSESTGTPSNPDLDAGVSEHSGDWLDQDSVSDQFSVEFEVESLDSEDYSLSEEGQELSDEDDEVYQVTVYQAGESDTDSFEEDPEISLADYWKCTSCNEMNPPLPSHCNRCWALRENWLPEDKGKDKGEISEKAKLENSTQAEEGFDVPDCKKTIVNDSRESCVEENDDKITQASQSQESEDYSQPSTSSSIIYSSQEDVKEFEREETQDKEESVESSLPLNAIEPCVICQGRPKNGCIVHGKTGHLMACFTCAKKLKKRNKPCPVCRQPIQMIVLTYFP

IC50 | Structure (SMILES)
449 ± 51 µM | O=S(=O)(Nc1ccc(C(F)(F)F)cc1)c1cc(Cl)c(O)c(Cl)c1 [Compound 96, 3,5-Dichloro-4-hydroxy-N-(4-trifluoromethyl-phenyl)-benzenesulfonamide]
429 µM | Cc1ccc(S(=O)(=O)Nc2ccc(C(F)(F)F)cc2)cc1N [Compound 36, 3-Amino-4-methyl-N-(4-trifluoromethyl-phenyl)benzenesulfonamide]
102 ± 13 µM | O=S(=O)(Nc1ccc(C(F)(F)F)cc1)c1ccc(Cl)s1 [Compound 9, 5-Chlorothiophene-2-sulfonic acid (4-trifluoromethylphenyl)amide]
350 ± 10 µM | Cn1ncc(-c2ccc(S(=O)(=O)Nc3ccc(C(F)(F)F)cc3)s2)c1C(F)(F)F [Compound 31, 5-(1-Methyl-5-trifluoromethyl-1H-pyrazol-4-yl)-thiophene-2-sulfonic acid (4-trifluoromethylphenyl)-amide]
295 ± 23 µM | Cc1ccc(S(=O)(=O)Nc2ccc(C(F)(F)F)cc2)cc1[N+](=O)[O-] [Compound 34, 4-Methyl-3-nitro-N-(4-trifluoromethylphenyl)benzenesulfonamide]
294 ± 52 µM | Cc1ccc(S(=O)(=O)Nc2ccc(Cl)cc2)cc1[N+](=O)[O-] [Compound 37, N-(4-Chlorophenyl)-4-methyl-3-nitrobenzenesulfonamide]
152 µM | O=S(=O)(Nc1ccc(C(F)(F)F)cc1)c1ccc(Br)s1 [Compound 116, 5-Bromo-thiophene-2-sulfonic acid (4-trifluoromethyl-phenyl)-amide]
329 ± 42 µM | O=S(=O)(Nc1ccc(C(F)(F)F)cc1)c1ccc2nsnc2c1 [Compound 123, Benzo[1,2,5]thiadiazole-5-sulfonic acid (4-trifluoromethyl-phenyl)-amide]
401 ± 46 µM | O=[N+]([O-])c1ccccc1S(=O)(=O)Nc1cc(C(F)(F)F)cc(C(F)(F)F)c1 [Compound 107, N-(3,5-Bis-trifluoromethyl-phenyl)-2-nitro-benzenesulfonamide]
408 ± 18 µM | COc1ccc(S(=O)(=O)Nc2ccc(Cl)cc2)cc1Cl [Compound 103, 3-Chloro-N-(4-chloro-phenyl)-4-methoxy-benzenesulfonamide]
427 ± 3 µM | O=[N+]([O-])c1cc(S(=O)(=O)Nc2ccc(Cl)c(Cl)c2)ccc1Cl [Compound 30, 4-Chloro-N-(3,4-dichlorophenyl)-3-nitrobenzenesulfonamide]
494 µM | O=S(=O)(Nc1ccc(C(F)(F)F)cc1)c1ccc(-c2ncco2)cc1 [Compound 13, 4-Oxazol-2-yl-N-(4-trifluoromethylphenyl)benzenesulfonamide]
482 ± 26 µM | O=[N+]([O-])c1cccc(S(=O)(=O)Nc2ccc(C(F)(F)F)cc2)c1 [Compound 20, 3-Nitro-N-(4-trifluoromethylphenyl)benzenesulfonamide]
207 µM | O=[N+]([O-])c1ccc(S(=O)(=O)Nc2cc(C(F)(F)F)cc(C(F)(F)F)c2)cc1 [Compound 98, N-(3,5-Bis-trifluoromethyl-phenyl)-4-nitro-benzenesulfonamide]
366 ± 7 µM | O=[N+]([O-])c1csc(S(=O)(=O)Nc2ccc(C(F)(F)F)cc2)c1 [Compound 76, 4-Nitro-thiophene-2-sulfonic acid (4-trifluoromethyl-phenyl)-amide]
394 ± 13 µM | O=[N+]([O-])c1ccc(S(=O)(=O)Nc2ccc(Cl)cc2)cc1 [Compound 97, N-(4-Chloro-phenyl)-4-nitro-benzene-sulfonamide]

Second part, the molecule before the results:

Structure (SMILES) | IC50
O=[N+]([O-])c1ccc(NS(=O)(=O)c2cc([N+](=O)[O-])c(Cl)s2)cc1 [Compound 131, 5-Chloro-4-nitro-thiophene-2-sulfonic acid (4-nitro-phenyl)-amide] | 41 ± 4 µM
O=[N+]([O-])c1cc(S(=O)(=O)Nc2ccc(Cl)cc2)sc1N1CCCC(O)C1 (stereo not drawn) [Compound 130, 5-(3-Hydroxy-piperidin-1-yl)-4-nitro-thiophene-2-sulfonic acid (4-chloro-phenyl)-amide] | 64 ± 1 µM
O=S(=O)(Nc1ccc(Cl)cc1)c1cc(Cl)c(O)c(Cl)c1 [Compound 94, 3,5-Dichloro-N-(4-chloro-phenyl)-4-hydroxy-benzenesulfonamide] | 227 ± 7 µM
O=S(=O)(Nc1cc(C(F)(F)F)cc(C(F)(F)F)c1)c1ccc(-n2cccn2)cc1 [Compound 89, N-(3,5-Bis-trifluoromethyl-phenyl)-4-pyrazol-1-yl-benzenesulfonamide] | 275 ± 45 µM
O=S(=O)(Nc1cc(C(F)(F)F)cc(C(F)(F)F)c1)c1cc2ccccc2s1 [Compound 120, Benzo[b]thiophene-2-sulfonic acid (3,5-bis-trifluoromethyl-phenyl)-amide] | 193 ± 12 µM
O=S(=O)(Nc1cc(C(F)(F)F)cc(C(F)(F)F)c1)c1ccc(Br)s1 [Compound 18, 5-Bromothiophene-2-sulfonic acid (3,5-bis-trifluoromethylphenyl)amide] | 172 ± 21 µM
O=[N+]([O-])c1cc(S(=O)(=O)Nc2ccc(Cl)cc2)sc1N1CCOCC1 [Compound 79, 5-Morpholin-4-yl-4-nitro-thiophene-2-sulfonic acid (4-chloro-phenyl)-amide] | 419 ± 31 µM
O=S(=O)(Nc1cc(C(F)(F)F)cc(C(F)(F)F)c1)c1c(Cl)nc2sccn12 [Compound 84, 6-Chloro-imidazo[2,1-b]thiazole-5-sulfonic acid (3,5-bis-trifluoro-methyl-phenyl)-amide] | 308 ± 17 µM
O=S(=O)(Nc1cc(C(F)(F)F)cc(C(F)(F)F)c1)c1ccc(-c2ncco2)cc1 [Compound 14, N-(3,5-Bis-trifluoromethylphenyl)-4-oxazol-2-yl-benzenesulfonamide] | 448 ± 55 µM
O=S(=O)(Nc1cccc(C(F)(F)F)c1)c1cc(Br)c(Br)s1 [Compound 27, 4,5-Dibromothiophene-2-sulfonic acid (3-trifluoromethylphenyl)amide] | 199 ± 28 µM
O=S(=O)(NCc1ccc(F)cc1)c1cc(Cl)c(O)c(Cl)c1 [Compound 127, 3,5-Dichloro-N-(4-fluoro-benzyl)-4-hydroxy-benzenesulfonamide] | 325 ± 24 µM
O=S(=O)(Nc1cc(Cl)cc(Cl)c1)c1cc(Br)c(Br)s1 [Compound 112, 4,5-Dibromo-thiophene-2-sulfonic acid (3,5-dichloro-phenyl)-amide] | 194 µM
O=S(=O)(Nc1cc(Cl)cc(Cl)c1)c1ccc(Br)s1 [Compound 17, 5-Bromothiophene-2-sulfonic acid (3,5-dichlorophenyl)amide] | 291 µM
O=S(=O)(Nc1cc(C(F)(F)F)cc(C(F)(F)F)c1)c1cc(Br)c(Cl)s1 [Compound 114, 4-Bromo-5-chloro-thiophene-2-sulfonic acid (3,5-bis-trifluoromethyl-phenyl)-amide] | 293 µM
O=S(=O)(Nc1ccc(Cl)c(Cl)c1)c1cc(Br)c(Br)s1 [Compound 28, 4,5-Dibromothiophene-2-sulfonic acid (3,4-dichlorophenyl)amide] | 160 ± 31 µM
Cc1c(S(=O)(=O)Nc2cc(C(F)(F)F)cc(C(F)(F)F)c2)sc2ccc(Cl)cc12 [Compound 119, 5-Chloro-3-methyl-benzo[b]thiophene-2-sulfonic acid (3,5-bis-trifluoromethyl-phenyl)-amide] | 106 ± 13 µM
O=[N+]([O-])c1csc(S(=O)(=O)NCCc2c[nH]c3ccccc23)c1 [Compound 77, 4-Nitro-thiophene-2-sulfonic acid [2-(1H-indol-3-yl)-ethyl]-amide] | 247 ± 61 µM
O=S(=O)(Nc1cc(Cl)cc(Cl)c1)c1cc(Cl)c(O)c(Cl)c1 [Compound 101, 3,5-Dichloro-N-(3,5-dichloro-phenyl)-4-hydroxy-benzenesulfonamide] | 299 ± 31 µM
O=S(=O)(Nc1cc(Cl)cc(Cl)c1)c1cc(Br)c(Cl)s1 [Compound 115, 4-Bromo-5-chloro-thiophene-2-sulfonic acid (3,5-dichloro-phenyl)-amide] | 431 µM
O=S(=O)(Nc1ccc(Cl)cc1)c1ccc(Br)s1 [Compound 16, 5-Bromothiophene-2-sulfonic acid (4-chlorophenyl)amide] | 290 ± 54 µM
O=S(=O)(Nc1ccc(Cl)cc1)c1cc(S(=O)(=O)Nc2ccc(Cl)cc2)c(Cl)s1 [Compound 70, 5-Chloro-thiophene-2,4-disulfonic acid bis-[(4-chloro-phenyl)-amide]] | 135 ± 19 µM
CSc1ncc(-c2ccc(S(=O)(=O)Nc3cc(Cl)cc(Cl)c3)s2)cn1 [Compound 12, 5-(2-Methylsulfanyl-pyrimidin-5-yl)-thiophene-2-sulfonic acid (3,5-dichlorophenyl)-amide] | 374 ± 12 µM
CC(=O)N1CCN(c2cc(S(=O)(=O)Nc3cc(C(F)(F)F)cc(C(F)(F)F)c3)ccc2[N+](=O)[O-])CC1 [Compound 106, 3-(4-Acetyl-piperazin-1-yl)-N-(3,5-bis-trifluoromethyl-phenyl)-4-nitro-benzenesulfonamide] | 241 ± 158 µM
O=S(=O)(NCc1ccc(Cl)cc1)c1cc(Cl)c(O)c(Cl)c1 [Compound 109, 3,5-Dichloro-N-(4-chloro-benzyl)-4-hydroxy-benzenesulfonamide] | 375 ± 41 µM
O=S(=O)(Nc1cc(C(F)(F)F)cc(C(F)(F)F)c1)c1cc(Br)c(Br)s1 [Compound 8, 4,5-Dibromothiophene-2-sulfonic acid (3,5-bis-trifluoromethylphenyl)amide] | 407 µM
Cc1[nH]c(C(=O)O)c(C)c1S(=O)(=O)Nc1ccc(Cl)cc1 [Compound 92, 4-(4-Chloro-phenylsulfamoyl)-3,5-dimethyl-1H-pyrrole-2-carboxylic acid] | 418 µM
